The values that follow come from patent US8629157B2, “Pyrrolidine compounds which modulate the CB2 receptor” (Boehringer Ingelheim International GmbH, priority 2009, dated 2014).

Each structure is given as a SMILES string. pEC50: −log10 of the molar value.

The first assay deals with human CB2R (Homo sapiens, UniProt P34972). In words: CB2R mediated modulation of cAMP synthesis.
Sequence of human CB2R (P34972 whole entry): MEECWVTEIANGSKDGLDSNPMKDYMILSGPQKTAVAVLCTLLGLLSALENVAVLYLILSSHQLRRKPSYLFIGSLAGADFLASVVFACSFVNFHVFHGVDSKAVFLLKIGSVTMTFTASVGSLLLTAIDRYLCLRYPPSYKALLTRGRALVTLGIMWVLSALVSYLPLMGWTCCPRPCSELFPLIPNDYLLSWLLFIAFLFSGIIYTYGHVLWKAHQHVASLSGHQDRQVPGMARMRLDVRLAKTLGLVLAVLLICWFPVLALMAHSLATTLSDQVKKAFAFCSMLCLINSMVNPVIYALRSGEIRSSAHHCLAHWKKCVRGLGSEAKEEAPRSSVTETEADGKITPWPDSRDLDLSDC
Details: not given
Format: cell-based. The essentials: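 cAMP measured with the DiscoverX-XS kit after 30 min, 37° C. compound exposure of human CB2R-expressing CHO cells stimulated by 10 uM forskolin (1 mM IBMX, 0.25% BSA).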
`CC(C)(C)Cc1cc(NC(=O)[C@@H]2CCCN2CC2CCOCC2)on1` [(S)-1-(Tetrahydro-pyran-4-ylmethyl)-pyrrolidine-2-carboxylic acid [3-(2,2-dimethyl-propyl)-isoxazol-5-yl]-amide] gave a pEC50 of 8.46. Same read-out and setting: the value for `CC(C)(CO)c1cc(NC(=O)[C@@H]2CCCN2C2CCOCC2)on1` [(S)-1-(tetrahydro-pyran-4-yl)-pyrrolidine-2-carboxylic acid [3-(2-hydroxy-1,1-dimethyl-ethyl)-isoxazol-5-yl]-amide] was 7.30. The compound `CC(C)(C)c1cc(NC(=O)[C@@H]2CCCN2C2CCC2)on1` [(S)-1-Cyclobutyl-pyrrolidine-2-carboxylic acid (3-tert-butyl-isoxazol-5-yl)-amide] gave a pEC50 of 8.20. The same measure, in the same setting: under `CC(C)(C)c1nnc(NC(=O)[C@@H]2CCCN2C2CCC2)s1` [(S)-1-Cyclobutyl-pyrrolidine-2-carboxylic acid (5-tert-butyl-1,3,4-thiadiazol-2-yl)-amide] stands 6.59. In turn, `CC(C)(C)c1cc(NC(=O)[C@@H]2CCCN2CC2C=CCCC2)on1` (stereo partly drawn) [(S)-1-Cyclohex-2-enylmethyl-pyrrolidine-2-carboxylic acid (3-tert-butyl-isoxazol-5-yl)-amide] gave a pEC50 of 10.14.

In turn, `CC(C)(C)c1cc(NC(=O)[C@@H]2CCCN2C2CCCCC2)on1` [(S)-1-Cyclohexyl-pyrrolidine-2-carboxylic acid (3-tert-butyl-isoxazol-5-yl)-amide] showed a pEC50 of 9.76. `CC(C)(C)c1nnc(NC(=O)[C@@H]2CCCN2C2CCCCC2)s1` [(S)-1-Cyclohexyl-pyrrolidine-2-carboxylic acid (5-tert-butyl-1,3,4-thiadiazol-2-yl)-amide] gave a pEC50 of 7.52. Still for that read-out and setting: under `CC(C)(C)c1cc(NC(=O)[C@@H]2CCCN2CC2CCCCC2)on1` [(S)-1-Cyclohexylmethyl-pyrrolidine-2-carboxylic acid (3-tert-butyl-isoxazol-5-yl)-amide] stands 10.10. Still for that read-out and setting: the value for `CC(C)(C)c1cc(NC(=O)[C@@H]2CCCN2C2CCCC2)on1` [(S)-1-Cyclopentyl-pyrrolidine-2-carboxylic acid (3-tert-butyl-isoxazol-5-yl)-amide] was 8.62. On the same count and under the same terms, the value for `CC(C)(C)c1nnc(NC(=O)[C@@H]2CCCN2C2CCCC2)s1` [(S)-1-Cyclopentyl-pyrrolidine-2-carboxylic acid (5-tert-butyl-1,3,4-thiadiazol-2-yl)-amide] was 6.78; that for `CC(C)(C)Cc1cc(NC(=O)[C@@H]2CCCN2C2CCCC2)on1` [(S)-1-Cyclopentyl-pyrrolidine-2-carboxylic acid [3-(2,2-dimethyl-propyl)-isoxazol-5-yl]-amide] was 6.95. Regarding `CC(C)(C)c1cc(NC(=O)[C@@H]2CCCN2C2CC2)on1` [(S)-1-Cyclopropyl-pyrrolidine-2-carboxylic acid (3-tert-butyl-isoxazol-5-yl)-amide], the pEC50 is 8.50.

Turning to `CC(C)(C)c1cc(NC(=O)[C@@H]2CCCN2CC2CC2)on1` [(S)-1-Cyclopropylmethyl-pyrrolidine-2-carboxylic acid (3-tert-butyl-isoxazol-5-yl)-amide], the pEC50 was 7.94. On the same count and under the same terms, the value for `CC(C)(C)c1nnc(NC(=O)[C@@H]2CCCN2CC2CC2)s1` [(S)-1-Cyclopropylmethyl-pyrrolidine-2-carboxylic acid (5-tert-butyl-1,3,4-thiadiazol-2-yl)-amide] was 6.47. `CC(C)(C)Cc1cc(NC(=O)[C@@H]2CCCN2CC2CC2)on1` [(S)-1-Cyclopropylmethyl-pyrrolidine-2-carboxylic acid [3-(2,2-dimethyl-propyl)-isoxazol-5-yl]-amide] had a pEC50 of 7.65. On the same count and under the same terms, the value for `CC(C)N1CCC[C@H]1C(=O)Nc1cc(C(C)(C)C)no1` [(S)-1-Isopropyl-pyrrolidine-2-carboxylic acid (3-tert-butyl-isoxazol-5-yl)-amide] was 6.79.

As for `CC(C)(C)c1cc(NC(=O)[C@]2(C)CCCN2c2ccc(C(F)(F)F)cc2)no1` [(S)-2-Methyl-1-(4-trifluoromethyl-phenyl)-pyrrolidine-2-carboxylic acid (5-tert-butyl-isoxazol-3-yl)-amide], the pEC50 is 9.70.

Compound `C[C@@]1(C(=O)Nc2nc(-c3ccccc3)ns2)CCCN1c1ccc(C(F)(F)F)cn1` [(S)-2-Methyl-1-(5-trifluoromethyl-pyridin-2-yl)-pyrrolidine-2-carboxylic acid (3-phenyl-1,2,4-thiadiazol-5-yl)-amide] gave a pEC50 of 9.87. `CC(C)(C)c1cc(NC(=O)[C@]2(C)CCCN2c2ccc(C(F)(F)F)cn2)no1` [(S)-2-Methyl-1-(5-trifluoromethyl-pyridin-2-yl)-pyrrolidine-2-carboxylic acid (5-tert-butyl-isoxazol-3-yl)-amide] had a negative logarithm of the EC50 (pEC50) of 10.82. As for `C[C@@]1(C(=O)Nc2ccc(C(F)(F)F)cn2)CCCN1c1ccc(C(F)(F)F)cn1` [(S)-2-Methyl-1-(5-trifluoromethyl-pyridin-2-yl)-pyrrolidine-2-carboxylic acid (5-trifluoromethyl-pyridin-2-yl)-amide], the pEC50 was 9.20.

Regarding `CC(C)(C)c1cc(NC(=O)[C@@H]2CCC(=O)N2c2cc(F)c(F)c(F)c2)on1` [(S)-5-Oxo-1-(3,4,5-trifluoro-phenyl)-pyrrolidine-2-carboxylic acid (3-tert-butyl-isoxazol-5-yl)-amide], the pEC50 is 7.10.

`CC(C)(C)c1cc(NC(=O)[C@@H]2CCC(=O)N2c2cc(F)c(F)c(F)c2)no1` [(S)-5-Oxo-1-(3,4,5-trifluoro-phenyl)-pyrrolidine-2-carboxylic acid (5-tert-butyl-isoxazol-3-yl)-amide] gave a pEC50 of 7.13. Compound `CC(C)(C)c1cc(NC(=O)[C@@H]2CCC(=O)N2c2ccc(OC(F)(F)F)cc2)on1` [(S)-5-Oxo-1-(4-trifluoromethoxy-phenyl)-pyrrolidine-2-carboxylic acid (3-tert-butyl-isoxazol-5-yl)-amide] showed a pEC50 of 7.46. Compound `CC(C)(C)c1cc(NC(=O)[C@@H]2CCC(=O)N2c2ccc(OC(F)(F)F)cc2)no1` [(S)-5-Oxo-1-(4-trifluoromethoxy-phenyl)-pyrrolidine-2-carboxylic acid (5-tert-butyl-isoxazol-3-yl)-amide] showed a negative logarithm of the EC50 (pEC50) of 6.88. As for `CC(C)c1cc(NC(=O)[C@@H]2CCC(=O)N2c2ccc(C(F)(F)F)cc2)on1` [(S)-5-Oxo-1-(4-trifluoromethyl-phenyl)-pyrrolidine-2-carboxylic acid (3-isopropyl-isoxazol-5-yl)-amide], the pEC50 was 7.38.

`CCC(C)c1cc(NC(=O)[C@@H]2CCC(=O)N2c2ccc(C(F)(F)F)cc2)on1` (stereo partly drawn) [(S)-5-Oxo-1-(4-trifluoromethyl-phenyl)-pyrrolidine-2-carboxylic acid (3-sec-butyl-isoxazol-5-yl)-amide] gave a negative-log EC50 (pEC50) of 7.39. On to `CC(C)(C)c1cc(NC(=O)[C@@H]2CCC(=O)N2c2ccc(C(F)(F)F)cc2)sn1` [(S)-5-Oxo-1-(4-trifluoromethyl-phenyl)-pyrrolidine-2-carboxylic acid (3-tert-butyl-isothiazol-5-yl)-amide], for which the pEC50 is 6.95. For `CC(C)(C)c1cc(NC(=O)[C@@H]2CCC(=O)N2c2ccc(C(F)(F)F)cc2)no1` [(S)-5-Oxo-1-(4-trifluoromethyl-phenyl)-pyrrolidine-2-carboxylic acid (5-tert-butyl-isoxazol-3-yl)-amide], the pEC50 was 8.24. `CC(C)(CO)c1cc(NC(=O)[C@@H]2CCC(=O)N2c2ccc(C(F)(F)F)cc2)no1` [(S)-5-Oxo-1-(4-trifluoromethyl-phenyl)-pyrrolidine-2-carboxylic acid [5-(2-hydroxy-1,1-dimethyl-ethyl)-isoxazol-3-yl]-amide] gave a pEC50 of 7.09.

For the compound `COCC(C)(C)c1cc(NC(=O)[C@@H]2CCC(=O)N2c2ccc(C(F)(F)F)cc2)no1` [(S)-5-Oxo-1-(4-trifluoromethyl-phenyl)-pyrrolidine-2-carboxylic acid [5-(2-methoxy-1,1-dimethyl-ethyl)-isoxazol-3-yl]-amide], the pEC50 was 7.82. Consider `C=Cc1ccc(N2C(=O)CC[C@H]2C(=O)Nc2cc(C(C)(C)C)no2)cc1` [(S)-5-Oxo-1-(4-vinyl-phenyl)-pyrrolidine-2-carboxylic acid (3-tert-butyl-isoxazol-5-yl)-amide], for which the pEC50 is 7.69. The same measure, in the same setting: under `C=Cc1ccc(N2C(=O)CC[C@H]2C(=O)Nc2cc(C(C)(C)C)on2)cc1` [(S)-5-Oxo-1-(4-vinyl-phenyl)-pyrrolidine-2-carboxylic acid (5-tert-butyl-isoxazol-3-yl)-amide] stands 7.16; under `Cc1ccc(N2C(=O)CC[C@H]2C(=O)Nc2cc(C(C)(C)C)no2)cc1` [(S)-5-Oxo-1-p-tolyl-pyrrolidine-2-carboxylic acid (3-tert-butyl-isoxazol-5-yl)-amide], 6.79.

Compound `CC(C)(C)c1cc(NC(=O)[C@@H]2CCC(=O)N2c2ccccn2)on1` [(S)-5-Oxo-1-pyridin-2-yl-pyrrolidine-2-carboxylic acid (3-tert-butyl-isoxazol-5-yl)-amide] gave a pEC50 of 6.87. Turning to `Cc1ccc(N2C(=O)CC[C@H]2C(=O)Nc2cc(C(C)(C)C)no2)cc1Cl` [(S)-l-(3-Chloro-4-methyl-phenyl)-5-oxo-pyrrolidine-2-carboxylic acid (3-tert-butyl-isoxazol-5-yl)-amide], the pEC50 is 7.11.

Still in this assay, the particulars now being: CHO cells expressing human CB2R; inhibition of forskolin-stimulated cAMP synthesis; mean; read-out: CB2 CAMP @ EC50 nM (mean).
Turning to `CC(C)(C)c1nnc(NC(=O)[C@@H]2CCCN2C2CC2)s1` [(S)-1-Cyclopropyl-pyrrolidine-2-carboxylic acid (5-tert-butyl-1,3,4-thiadiazol-2-yl)-amide], the EC50 was 109 nM. `CC(C)(C)c1cc(NC(=O)[C@@H]2CCCN2c2ncccn2)on1` [(S)-1-Pyrimidin-2-yl-pyrrolidine-2-carboxylic acid (3-tert-butyl-isoxazol-5-yl)-amide]: the concentration for a half-maximal effect (EC50) stood at 109 nM. Turning to `COc1ccc(-c2nsc(NC(=O)[C@@H]3CCC(=O)N3c3ccc(C(F)(F)F)cc3)n2)cc1` [(S)-5-Oxo-1-(4-trifluoromethyl-phenyl)-pyrrolidine-2-carboxylic acid [3-(4-methoxy-phenyl)-1,2,4-thiadiazol-5-yl]-amide], the EC50 is 178 nM.

Usually pEC50 stands for −log10 of the EC50, conventionally taken in molar units. The EC50 is the concentration at which the effect is half-maximal.
